Laboratory results published in the supplement of paper PMC11451515.

How the values were obtained:
Details in all cases: 48 h
[1] = system: NOMO1; experiment: cell viability relative to DMSO control; higher = less cytotoxic
Method in brief: (§1)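 Library compounds in DMSO were pin-dosed into 1536-well plates (5 μl) holding NOMO1 or SEM (500 cells/well) or P12-Ichikawa (1000 cells/well) leukemia cells, across an 11-point threefold series of 47 μM to 0.79 nM. Each cell line had been adapted for at least four passages in each medium. CellTiter-Glo One luminescence was read after 48 h at 37°C. Viability is the per-plate percentage relative to DMSO wells, with cell-free wells as background.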

[2] = system: P12-Ichikawa; experiment: as above
Method in brief: as §1

[3] = system: SEM cells; experiment: as above
Method in brief: as §1

[4] = system: NOMO1; experiment: AUC of viability dose-response curve (% viability x log10 dose units); higher = less sensitive
Method in brief: (§2)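 Medium-adapted leukemia cells in 1536-well plates, at 500 or 1000 cells/well, were incubated for 48 h at 37°C with library compounds in DMSO at 11 threefold doses from 47 μM to 0.79 nM. CellTiter-Glo One luminescence normalised per plate to DMSO and cell-free wells was fitted with a four-parameter log-logistic model over log10 doses. Area under the curve was integrated from this fit by trapezoidal rule, with curves beyond full viability scaled and failed quality-control curves removed.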

[5] = system: P12-Ichikawa; experiment: as above
Method in brief: as §2

[6] = system: SEM cells; experiment: as above
Method in brief: as §2

COC1CCC(CC1)N(C(=O)C2CCC(C)CC2)C3=C(SC(=C3)\C4=C\CCCC4)C(O)=O (stereo not drawn)
cell viability [%]
Details	[1]	[2]	[3]
HPLM + 10% dialyzed FBS, 0.000781 µM	120	118	111
HPLM + 10% dialyzed FBS, 0.00234 µM	120	118	120
HPLM + 10% dialyzed FBS, 0.00702 µM	109	116	119
HPLM + 10% dialyzed FBS, 0.0211 µM	127	111	117
HPLM + 10% dialyzed FBS, 0.0632 µM	128	108	113
HPLM + 10% dialyzed FBS, 0.19 µM	130	113	117
HPLM + 10% dialyzed FBS, 0.569 µM	107	111	104
HPLM + 10% dialyzed FBS, 1.71 µM	112	104	115
HPLM + 10% dialyzed FBS, 5.12 µM	106	95.3	112
HPLM + 10% dialyzed FBS, 15.4 µM	90.9	83.5	84.9
HPLM + 10% dialyzed FBS, 46.1 µM	52.6	60	72.1
RPMI 5 mM glucose + 10% FBS, 0.000781 µM	103	109	114
RPMI 5 mM glucose + 10% FBS, 0.00234 µM	115	112	111
RPMI 5 mM glucose + 10% FBS, 0.00702 µM	104	109	124
RPMI 5 mM glucose + 10% FBS, 0.0211 µM	119	108	128
RPMI 5 mM glucose + 10% FBS, 0.0632 µM	102	92.8	144
RPMI 5 mM glucose + 10% FBS, 0.19 µM	104	106	134
RPMI 5 mM glucose + 10% FBS, 0.569 µM	91.5	105	122
RPMI 5 mM glucose + 10% FBS, 1.71 µM	105	98.2	121
RPMI 5 mM glucose + 10% FBS, 5.12 µM	103	94.9	121
RPMI 5 mM glucose + 10% FBS, 15.4 µM	90.7	88.7	82.2
RPMI 5 mM glucose + 10% FBS, 46.1 µM	96	65.6	73.5
RPMI 5 mM glucose + 10% dialyzed FBS, 0.000781 µM	102	103	116
RPMI 5 mM glucose + 10% dialyzed FBS, 0.00234 µM	102	105	114
RPMI 5 mM glucose + 10% dialyzed FBS, 0.00702 µM	120	111	112
RPMI 5 mM glucose + 10% dialyzed FBS, 0.0211 µM	102	110	128
RPMI 5 mM glucose + 10% dialyzed FBS, 0.0632 µM	110	101	138
RPMI 5 mM glucose + 10% dialyzed FBS, 0.19 µM	99.4	102	108
RPMI 5 mM glucose + 10% dialyzed FBS, 0.569 µM	97	105	120
RPMI 5 mM glucose + 10% dialyzed FBS, 1.71 µM	109	97.6	137
RPMI 5 mM glucose + 10% dialyzed FBS, 5.12 µM	104	98.9	104
RPMI 5 mM glucose + 10% dialyzed FBS, 15.4 µM	93.4	77.8	75.3
RPMI 5 mM glucose + 10% dialyzed FBS, 46.1 µM	84.5	63.9	68

AUC of viability dose-response curve
Details	[4]	[5]	[6]
HPLM + 10% dialyzed FBS	442	438	455
RPMI 5 mM glucose + 10% FBS	446	451	449
RPMI 5 mM glucose + 10% dialyzed FBS	454	450	441
